From patent publication US9212168B2 (priority 2011, dated 2015) come the findings set out here.

Some results are limits rather than exact numbers.

Assay [1] deals with HCV genotype 1b replicon. Kind of assay: HCV genotype 1b replicon assay (Renilla luciferase readout). The settings on record: for EC50: Hepatitis C virus, read-out: Genotype 1b. The assay is classed as cell-based, hepatitis C virus. In a few lines: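 Reported as pEC50 derived from a 4-parameter fit of Renilla luciferase activity against concentration. Replicon cells (APC144, Huh7 background) were exposed to compound for 48 h in G418-free medium with final 0.5% DMSO, after seeding at 10,000 cells/well and 4 h adherence.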

The test system of assay [2] is HCV genotype 1a replicon. Kind of assay: HCV genotype 1a replicon assay (NS3 protease activity readout). The assay is classed as cell-based, hepatitis C virus. To be noted: for EC50: Hepatitis C virus, read-out: Genotype 1a, HCV genotype 1a replicon. A digest of the protocol: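 EC50 values came from a 4-parameter robust fit of fluorescence (ex 340, em 509 nm) produced by NS3-specific protease in lysates, assayed with 15 μM FRET substrate for 20 min at 37° C, after 48 or 72 hours of compound exposure (0.5% DMSO) of Huh7.5-derived APC89 genotype 1a replicon cells.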
Background: In antiviral work, replicon cells carry a viral genome segment that copies itself.

Assay [3] concerns HCV genotype 2a (J6 strain) NS5A chimeric replicon. Kind of assay: Replicon assay against NS5A sequence of genotype 2a (J6 strain), intergenotypic chimera. The assay is classed as cell-based. To be noted: Hepatitis C virus, read-out: Genotype 2a (J6). As for the experimental part: (§1) Assay 4: Replicon Assays Against NS5A Sequences of Other Genotypes
(§2) Potencies of test compounds against NS5A sequences of other genotypes were determined by creating intergenotypic chimeras. The entire NS5A gene from genotypes 2a, 2b, 3a, 4a, 5a, and 6a, or the nucleotide sequence encoding amino acids 11-118 of NS5A, was subcloned into a genotype 1b replicon. For genotype 2a, intergenotypic chimeras with both the JFH and the J6 strain were created. […] Since the majority of genotype 2a sequences in public databases contain the L31M sequence variant, the use of the J6 genotype 2a sequence may better reflect the antiviral potency of NS5A inhibitors.
(§3) These chimeric replicon plasmids were then linearized and in vitro transcribed to RNA. The RNA was used to transiently or stably transfect Huh-LUNET cells by electroporation, and the potencies of test compounds against the chimeras were determined as previously described.

The test system of assay [4] is HCV genotype 1a Y93H resistant mutant replicon. Briefly: Replicon assay against resistant mutant 1a Y93H (transient transfection). The assay is classed as cell-based. The settings on record: Hepatitis C virus, read-out: Genotype 1a Y93H. How it is done: Assay 3: Replicon Assays Against Resistant Mutants […]
Potencies of test compounds against additional mutations of interest were determined using transient transfection assays. These mutants included genotype 1a Y93C, Y93H, M28T, Q30E, Q30K, L31M, and Y93N. The mutation was first introduced into the parental plasmid by site-directed mutagenesis. The replicon plasmid was then linearized and in vitro transcribed to RNA. The RNA was used to transiently transfect Huh-LUNET cells (obtained from ReBLikon GmbH, Schriesheim, Germany) by electroporation, and the potencies of test compounds against the mutants were determined as previously described.

Assay [5] deals with HCV genotype 3a NS5A chimeric replicon. Briefly: Replicon assay against NS5A sequence of genotype 3a, intergenotypic chimera. The assay is classed as cell-based. The settings on record: Hepatitis C virus, read-out: Genotype 3a. As for the experimental part: as §1, §2, §3

`COC(=O)N[C@H](C(=O)N1CC2(C[C@H]1c1nc(-c3ccc(-c4ccc(NC(=O)c5ccc(N6CCN(C(=O)[C@H]7CC7(C)C)C[C@H]6C)nc5)cc4OC(F)(F)F)cc3)c[nH]1)OCCO2)C(C)C` [Example 4, Methyl (S)-1-((S)-8-(4-(4′-(6-((R)-4-((S)-2,2-dimethylcyclopropanecarbonyl)-2-methylpiperazin-1-yl)nicotinamido)-2′-(trifluoromethoxy)biphenyl-4-yl)-1H-imidazol-2-yl)-1,4-dioxa-7-azaspiro[4.4]nonan-7-yl)-3-methyl-1-oxobutan-2-ylcarbamate]: the EC50 in assay [1] was < 0.1 nM; in assay [2], < 0.1 nM; in assay [3] it was 1 to 10 nM; in assay [4] it was 0.1 to 1 nM; in assay [5], 1 to 10 nM.

`COC(=O)N[C@H](C(=O)N1C[C@@H](C)C[C@H]1c1nc(-c2ccc(-c3c(Cl)cc(C(=O)Nc4ccc(N5CCN(C(=O)C(C)(C)C)C[C@H]5C)nc4)cc3OC(F)(F)F)cc2)c[nH]1)C1CCOCC1` [Example 20, Methyl ((S)-2-((2S,4S)-2-(4-(2′-chloro-4′-((6-((R)-2-methyl-4-pivaloylpiperazin-1-yl)pyridin-3-yl)carbamoyl)-6′-(trifluoromethoxy)-[1,1′-biphenyl]-4-yl)-1H-imidazol-2-yl)-4-methylpyrrolidin-1-yl)-2-oxo-1-(tetrahydro-2H-pyran-4-yl)ethyl)carbamate]: the EC50 in assay [1] was < 0.1 nM; in assay [2], < 0.1 nM; in assay [3] it was 1 to 10 nM; in assay [4] it was 1 to 10 nM; in assay [5], 1 to 10 nM.

For `COC(=O)N[C@H](C(=O)N1C[C@@H](C)C[C@H]1c1nc(-c2ccc(-c3cc(Cl)c(NC(=O)c4ccc(N5CCN(C(=O)C(C)(C)C)C[C@H]5C)nc4)cc3OC(F)(F)F)cc2)c[nH]1)C1CCOCC1` [Example 14], the EC50 in assay [1] was < 0.1 nM; in assay [2], < 0.1 nM; in assay [3], 0.1 to 1 nM; in assay [4] it was 1 to 10 nM; in assay [5], 0.1 to 1 nM.

For `COC(=O)N[C@H](C(=O)N1C[C@@H](C)C[C@H]1c1nc(-c2ccc(-c3ccc(C(=O)Nc4ccc(N5CCN(C(=O)C(C)(C)C)C[C@H]5C)nc4)c(F)c3OC(F)(F)F)cc2)c[nH]1)C1CCOCC1` [Example 21, Methyl ((S)-2-((2S,4S)-2-(4-(3′-fluoro-4′-((6-((R)-2-methyl-4-pivaloyl-piperazin-1-yl)pyridin-3-yl)carbamoyl)-2′-(trifluoromethoxy)-[1,1′-biphenyl]-4-yl)-1H-imidazol-2-yl)-4-methylpyrrolidin-1-yl)-2-oxo-1-(tetrahydro-2H-pyran-4-yl)ethyl)carbamate], the EC50 is < 0.1 nM in assay [1]; < 0.1 nM in assay [2]; 0.1 to 1 nM in assay [3]; 0.1 to 1 nM in assay [4]; 0.1 to 1 nM in assay [5].

For `COC(=O)N[C@H](C(=O)N1C[C@@H](C#N)C[C@H]1c1nc(-c2ccc(-c3cc(Cl)c(NC(=O)c4ccc(N5CCN(C(=O)OC(C)(C)C)C[C@H]5C)nc4)cc3OC(F)(F)F)cc2)c[nH]1)C(C)C` [Example 17, (R)-4-[5-(5-Chloro-4′-{2-[(2S,4S)-4-cyano-1-((S)-2-methoxycarbonylamino-3-methyl-butyryl)-pyrrolidin-2-yl]-1H-imidazol-4-yl}-2-trifluoromethoxy-biphenyl-4-ylcarbamoyl)-pyridin-2-yl]-3-methyl-piperazine-1-carboxylic acid tert-butyl ester], the EC50 in assay [2] fell in the range of 0.1 to 1 nM; in assay [3], 10 to 1000 nM; in assay [4], 10 to 1000 nM; in assay [5], 10 to 1000 nM.

For the molecule `COC(=O)N[C@H](C(=O)N1C[C@@H](C)C[C@H]1c1nc(-c2ccc(-c3cc(F)c(NC(=O)c4ccc(N5CCN(C(=O)C(C)(C)C)C[C@H]5C)nc4)cc3OC(F)(F)F)cc2)c[nH]1)C(C)C` [Example 11, [(S)-1-((2S,4S)-2-{4-[4′-({6-[(R)-4-(2,2-Dimethyl-propionyl)-2-methyl-piperazin-1-yl]-pyridine-3-carbonyl}-amino)-5′-fluoro-2′-trifluoromethoxy-biphenyl-4-yl]-1H-imidazol-2-yl}-4-methyl-pyrrolidine-1-carbonyl)-2-methyl-propyl]-carbamic acid methyl ester], the EC50 was < 0.1 nM in assay [1]; < 0.1 nM in assay [2]; 1 to 10 nM in assay [3]; 10 to 1000 nM in assay [4]; 1 to 10 nM in assay [5].

Consider `COC(=O)N[C@H](C(=O)N1C[C@@H](C)C[C@H]1c1nc(-c2ccc(-c3cc(Cl)c(NC(=O)c4ccc(N5CCN(C(=O)[C@H]6CC6(C)C)C[C@H]5C)nc4)cc3OC(F)(F)F)cc2)c[nH]1)C(C)C` [Example 2, [(S)-1-((2S,4S)-2-{4-[5′-Chloro-4′-({6-[(R)-4-((S)-2,2-dimethyl-cyclopropanecarbonyl)-2-methyl-piperazin-1-yl]-pyridine-3-carbonyl}-amino)-2′-trifluoromethoxy-biphenyl-4-yl]-1H-imidazol-2-yl}-4-methyl-pyrrolidine-1-carbonyl)-2-methyl-propyl]-carbamic acid methyl ester], for which the EC50 is < 0.1 nM in assay [1], < 0.1 nM in assay [2], 1 to 10 nM in assay [3] and 1 to 10 nM in assay [5].

For the molecule `COC(=O)N[C@H](C(=O)N1C[C@@H](C)C[C@H]1c1nc(-c2ccc(-c3ccc(C(=O)Nc4ccc(N5C[C@H](C)N(C(=O)[C@H]6CC6(C)C)C[C@H]5C)nc4)cc3OC(F)(F)F)cc2)c[nH]1)C(C)C` [Example 7, ((S)-1-{(2S,4S)-2-[4-(4′-{6-[(2R,5S)-4-((S)-2,2-Dimethyl-cyclopropanecarbonyl)-2,5-dimethyl-piperazin-1-yl]-pyridin-3-ylcarbamoyl}-2′-trifluoromethoxy-biphenyl-4-yl)-1H-imidazol-2-yl]-4-methyl-pyrrolidine-1-carbonyl}-2-methyl-propyl)-carbamic acid methyl ester], the EC50 in assay [1] is < 0.1 nM; in assay [2], < 0.1 nM; in assay [3], 10 to 1000 nM; in assay [5], 10 to 1000 nM.

`COC(=O)N[C@H](C(=O)N1C[C@@H](SC)C[C@H]1c1nc(-c2ccc(-c3ccc(C(=O)Nc4ccc(N5CCN(C(=O)[C@H]6CC6(C)C)C[C@H]5C)nc4)cc3OC(F)(F)F)cc2)c[nH]1)C(C)C` [Example 9, ((S)-1-{(2S,4S)-2-[4-(4′-{6-[(R)-4-((S)-2,2-Dimethyl-cyclopropanecarbonyl)-2-methyl-piperazin-1-yl]-pyridin-3-ylcarbamoyl}-2′-trifluoromethoxy-biphenyl-4-yl)-1H-imidazol-2-yl]-4-methylsulfanyl-pyrrolidine-1-carbonyl}-2-methyl-propyl)-carbamic acid methyl ester]: the EC50 in assay [1] was < 0.1 nM; in assay [2], < 0.1 nM; in assay [3], 10 to 1000 nM; in assay [5] it was 10 to 1000 nM.

For the molecule `COCC(=O)N1CCC[C@@]1(C)C(=O)N1C[C@@H](C)N(c2ccc(NC(=O)c3ccc(-c4ccc(-c5c[nH]c([C@@H]6C[C@H](C)CN6C(=O)[C@@H](NC(=O)OC)C(C)C)n5)cc4)c(OC(F)(F)F)c3)cn2)C[C@@H]1C` [Example 4-8], the “Genotype 1b” value in assay [1] (HCV genotype 1b replicon) is recorded as “D (D represents pEC50>10 (EC50<0.1 nM))”. The “Genotype 1a” value in assay [2] (HCV genotype 1a replicon) is reported as “D (D represents pEC50>10 (EC50<0.1 nM))”.
